What follows are molecules tested on HT29 cells (assay: Inhibition of cell necrosis (CCK8 method), induced programmed necrosis of HT29 cells). Settings: Homo sapiens, HT-29; rescue from necrosis induced by TNF-α 20 ng/mL, AT-406 1 μM, Z-VAD-FMK 20 μM; 16-20 hours; CCK-8, OD 450 nm.
Format: cell-based
Outline: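 HT29 cells in McCOY's 5A with 10% FBS were pre-treated for 30 min with compound (9 fourfold steps, 25000 to 0.38 nM final, 0.25% DMSO). Necrosis was then induced with TNF-α 20 ng/mL, AT-406 1 μM and Z-VAD-FMK 20 μM for 16-20 h. Viability was read by CCK-8 OD450, normalized between uninduced and induced wells, and IC50 was curve-fitted.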

`CC(C)OCCOc1ccc(Cl)c(-c2ccnc(NC(=O)c3nnc(Cc4ccccc4F)[nH]3)c2)c1` [Example 388, 5-(2-fluorobenzyl)-N-(4-(2-chloro-5-(2-isopropoxyethoxy)phenyl)pyridin-2-yl)-4H-1,2,4-triazole-3-carboxamide] and `CC(C)(C)OCCOc1ccc(Cl)c(-c2ccnc(NC(=O)c3nnc(Cc4ccccc4F)[nH]3)c2)c1` [Example 392, 5-(2-fluorobenzyl)-N-(4-(5-(2-(tert-butoxy)ethoxy)-2-chlorophenyl)pyridin-2-yl)-4H-1,2,4-triazole-3-carboxamide] cannot be ordered by IC50: no more than 100 nM for the first, no more than 100 nM for the second.

`CC(C)OCCOc1ccc(Cl)c(-c2ccnc(NC(=O)c3nnc(CC4CCCC4)[nH]3)c2)c1` [Example 389, N-(4-(2-chloro-5-(2-isopropoxyethoxy)phenyl)pyridin-2-yl)-5-(cyclopentylmethyl)-4H-1,2,4-triazole-3-carboxamide] and `CC(C)OCCOc1ccc(Cl)c(-c2ccnc(NC(=O)c3nnc(CC4CCCCC4)[nH]3)c2)c1` [Example 390, N-(4-(2-chloro-5-(2-isopropoxyethoxy)phenyl)pyridin-2-yl)-5-(cyclohexylmethyl)-4H-1,2,4-triazole-3-carboxamide] cannot be ordered by IC50: no more than 100 nM for the first, no more than 100 nM for the second.

`CC(C)(C)OCCOc1ccc(Cl)c(-c2ccnc(NC(=O)c3nnc(Cc4ccccc4)[nH]3)c2)c1` [Example 391, 5-benzyl-N-(4-(5-(2-(tert-butoxy)ethoxy)-2-chlorophenyl)pyridin-2-yl)-4H-1,2,4-triazole-3-carboxamide] and `COCCCOc1ccc(Cl)c(-c2ccnc(NC(=O)c3nnc(Cc4ccccc4)[nH]3)c2)c1` [Example 395, 5-benzyl-N-(4-(2-chloro-5-(3-methoxypropoxy)phenyl)pyridin-2-yl)-4H-1,2,4-triazole-3-carboxamide] cannot be ordered by IC50: no more than 100 nM for the first, no more than 100 nM for the second.

`CC(C)(C)OCCOc1ccc(Cl)c(-c2ccnc(NC(=O)c3nnc(CC4CCCC4)[nH]3)c2)c1` [Example 393, N-(4-(5-(2-(tert-butoxy)ethoxy)-2-chlorophenyl)pyridin-2-yl)-5-(cyclopentylmethyl)-4H-1,2,4-triazole-3-carboxamide] and `CC(C)(C)OCCOc1ccc(Cl)c(-c2ccnc(NC(=O)c3nnc(CC4CCCCC4)[nH]3)c2)c1` [Example 394, N-(4-(5-(2-(tert-butoxy)ethoxy)-2-chlorophenyl)pyridin-2-yl)-5-(cyclohexylmethyl)-4H-1,2,4-triazole-3-carboxamide] cannot be ordered by IC50: no more than 100 nM for the first, no more than 100 nM for the second.

`COCCCOc1ccc(Cl)c(-c2ccnc(NC(=O)c3nnc(Cc4ccccc4F)[nH]3)c2)c1` [Example 396, 5-(2-fluorobenzyl)-N-(4-(2-chloro-5-(3-methoxypropoxy)phenyl)pyridin-2-yl)-4H-1,2,4-triazole-3-carboxamide] and `O=C(Nc1cc(-c2cc(OCCC3CCOCC3)ccc2Cl)ccn1)c1nnc(Cc2ccccc2F)[nH]1` [Example 404, N-(4-(2-chloro-5-(2-(tetrahydro-2H-pyran-4-yl)ethoxy)phenyl)pyridin-2-yl)-5-(2-fluorobenzyl)-4H-1,2,4-triazole-3-carboxamide] cannot be ordered by IC50: no more than 100 nM for the first, no more than 100 nM for the second.

`COCCCOc1ccc(Cl)c(-c2ccnc(NC(=O)c3nnc(CC4CCCC4)[nH]3)c2)c1` [Example 397, N-(4-(2-chloro-5-(3-methoxypropoxy)phenyl)pyridin-2-yl)-5-(cyclopentylmethyl)-4H-1,2,4-triazole-3-carboxamide] and `COCCCOc1ccc(Cl)c(-c2ccnc(NC(=O)c3nnc(CC4CCCCC4)[nH]3)c2)c1` [Example 398, N-(4-(2-chloro-5-(3-methoxypropoxy)phenyl)pyridin-2-yl)-5-(cyclohexylmethyl)-4H-1,2,4-triazole-3-carboxamide] cannot be ordered by IC50: no more than 100 nM for the first, no more than 100 nM for the second.

`O=C(Nc1cc(-c2cc(OCC3CCOCC3)ccc2Cl)ccn1)c1nnc(Cc2ccccc2)[nH]1` [Example 399, 5-benzyl-N-(4-(2-chloro-5-((tetrahydro-2H-pyran-4-yl)methoxy)phenyl)pyridin-2-yl)-4H-1,2,4-triazole-3-carboxamide] and `O=C(Nc1cc(-c2cc(OCCC3CCOCC3)ccc2Cl)ccn1)c1nnc(Cc2ccccc2)[nH]1` [Example 403, 5-benzyl-N-(4-(2-chloro-5-(2-(tetrahydro-2H-pyran-4-yl)ethoxy)phenyl)pyridin-2-yl)-4H-1,2,4-triazole-3-carboxamide] cannot be ordered by IC50: no more than 100 nM for the first, no more than 100 nM for the second.

`O=C(Nc1cc(-c2cc(OCC3CCOCC3)ccc2Cl)ccn1)c1nnc(Cc2ccccc2F)[nH]1` [Example 400, 5-(2-fluorobenzyl)-N-(4-(2-chloro-5-((tetrahydro-2H-pyran-4-yl)methoxy)phenyl)pyridin-2-yl)-4H-1,2,4-triazole-3-carboxamide] and `O=C(Nc1cc(-c2cc(OCC3CCOCC3)ccc2Cl)ccn1)c1nnc(CC2CCCC2)[nH]1` [Example 401, N-(4-(2-chloro-5-((tetrahydro-2H-pyran-4-yl)methoxy)phenyl)pyridin-2-yl)-5-(cyclopentylmethyl)-4H-1,2,4-triazole-3-carboxamide] cannot be ordered by IC50: no more than 100 nM for the first, no more than 100 nM for the second.

`O=C(Nc1cc(-c2cc(OCC3CCOCC3)ccc2Cl)ccn1)c1nnc(CC2CCCCC2)[nH]1` [Example 402, N-(4-(2-chloro-5-((tetrahydro-2H-pyran-4-yl)methoxy)phenyl)pyridin-2-yl)-5-(cyclohexylmethyl)-4H-1,2,4-triazole-3-carboxamide] and `O=C(Nc1cc(-c2cc(OCCC3CCOCC3)ccc2Cl)ccn1)c1nnc(CC2CCCCC2)[nH]1` [Example 406, N-(4-(2-chloro-5-(2-(tetrahydro-2H-pyran-4-yl)ethoxy)phenyl)pyridin-2-yl)-5-(cyclohexylmethyl)-4H-1,2,4-triazole-3-carboxamide] cannot be ordered by IC50: no more than 100 nM for the first, no more than 100 nM for the second.

`O=C(Nc1cc(-c2cc(OCCC3CCOCC3)ccc2Cl)ccn1)c1nnc(CC2CCCC2)[nH]1` [Example 405, N-(4-(2-chloro-5-(2-(tetrahydro-2H-pyran-4-yl)ethoxy)phenyl)pyridin-2-yl)-5-(cyclopentylmethyl)-4H-1,2,4-triazole-3-carboxamide] and `CC(C)(O)CCCOc1ccc(Cl)c(-c2cc(NC(=O)c3nnc(CC4CCCCC4)[nH]3)ncc2F)c1` [Example 410, N-(4-(2-chloro-5-((4-hydroxy-4-methylpentyl)oxy)phenyl)-5-fluoropyridin-2-yl)-5-(cyclohexylmethyl)-4H-1,2,4-triazole-3-carboxamide] cannot be ordered by IC50: no more than 100 nM for the first, no more than 100 nM for the second.

`CC(C)(O)CCCOc1cc(F)c(Cl)c(-c2ccnc(NC(=O)c3nnc(Cc4ccccc4)[nH]3)c2)c1` [Example 407, 5-benzyl-N-(4-(2-chloro-3-fluoro-5-((4-hydroxy-4-methylpentyl)oxy)phenyl)pyridin-2-yl)-4H-1,2,4-triazole-3-carboxamide] and `CC(C)(O)CCCOc1cc(F)c(Cl)c(-c2ccnc(NC(=O)c3nnc(Cc4ccccc4F)[nH]3)c2)c1` [Example 408, N-(4-(2-chloro-3-fluoro-5-((4-hydroxy-4-methylpentyl)oxy)phenyl)pyridin-2-yl)-5-(2-fluorobenzyl)-4H-1,2,4-triazole-3-carboxamide] cannot be ordered by IC50: greater than 10000 nM for the first, greater than 10000 nM for the second.

`CC(C)(O)CCCOc1ccc(Cl)c(-c2cc(NC(=O)c3nnc(Cc4ccccc4F)[nH]3)ncc2F)c1` [Example 409] and `CC(C)(O)CCCOc1ccc(Cl)c(-c2cc(NC(=O)c3nnc(Cc4ccccc4F)[nH]3)ncc2Cl)c1` [Example 411, N-(5-chloro-4-(2-chloro-5-((4-hydroxy-4-methylpentyl)oxy)phenyl)pyridin-2-yl)-5-(2-fluorobenzyl)-4H-1,2,4-triazole-3-carboxamide] cannot be ordered by IC50: no more than 100 nM for the first, 100 to 1000 nM for the second.

`CC(C)(O)CCCOc1ccc(Cl)c(-c2cc(NC(=O)c3nnc(CC4CCCCC4)[nH]3)ncc2Cl)c1` [Example 412, N-(5-chloro-4-(2-chloro-5-((4-hydroxy-4-methylpentyl)oxy)phenyl)pyridin-2-yl)-5-(cyclohexylmethyl)-4H-1,2,4-triazole-3-carboxamide] and `Cc1cnc(NC(=O)c2nnc(CC3CCCCC3)[nH]2)cc1-c1cc(OCCCC(C)(C)O)ccc1Cl` [Example 414, N-(4-(2-chloro-5-((4-hydroxy-4-methylpentyl)oxy)phenyl)-5-methylpyridin-2-yl)-5-(cyclohexylmethyl)-4H-1,2,4-triazole-3-carboxamide] fall in the same range of IC50: 100 to 1000 nM for the first, 100 to 1000 nM for the second.

`Cc1cnc(NC(=O)c2nnc(Cc3ccccc3F)[nH]2)cc1-c1cc(OCCCC(C)(C)O)ccc1Cl` [Example 413, N-(4-(2-chloro-5-((4-hydroxy-4-methylpentyl)oxy)phenyl)-5-methylpyridin-2-yl)-5-(2-fluorobenzyl)-4H-1,2,4-triazole-3-carboxamide] and `CCC(O)(CC)CCCOc1ccc(Cl)c(-c2cc(NC(=O)c3nnc(Cc4ccccc4F)[nH]3)ncc2F)c1` [Example 415, N-(4-(2-chloro-5-((4-ethyl-4-hydroxyhexyl)oxy)phenyl)-5-fluoropyridin-2-yl)-5-(2-fluorobenzyl)-4H-1,2,4-triazole-3-carboxamide] cannot be ordered by IC50: 100 to 1000 nM for the first, no more than 100 nM for the second.

`CCC(O)(CC)CCCOc1ccc(Cl)c(-c2cc(NC(=O)c3nnc(CC4CCCCC4)[nH]3)ncc2F)c1` [Example 416, N-(4-(2-chloro-5-((4-ethyl-4-hydroxyhexyl)oxy)phenyl)-5-fluoropyridin-2-yl)-5-(cyclohexylmethyl)-4H-1,2,4-triazole-3-carboxamide] and `CCC(O)(CC)CCCOc1ccc(Cl)c(-c2cc(NC(=O)c3nnc(CC4CCCCC4)[nH]3)ncc2Cl)c1` [Example 418, N-(5-chloro-4-(2-chloro-5-((4-ethyl-4-hydroxyhexyl)oxy)phenyl)pyridin-2-yl)-5-(cyclohexylmethyl)-4H-1,2,4-triazole-3-carboxamide] cannot be ordered by IC50: no more than 100 nM for the first, 100 to 1000 nM for the second.

For `CCC(O)(CC)CCCOc1ccc(Cl)c(-c2cc(NC(=O)c3nnc(Cc4ccccc4F)[nH]3)ncc2Cl)c1` [Example 417, N-(5-chloro-4-(2-chloro-5-((4-ethyl-4-hydroxyhexyl)oxy)phenyl)pyridin-2-yl)-5-(2-fluorobenzyl)-4H-1,2,4-triazole-3-carboxamide], the IC50 was 100 to 1000 nM.

From patent publication US12435060B2, “Acylamino bridged heterocyclic compound, and composition and application thereof” (BEIJING SCITECH-MQ PHARMACEUTICALS LIMITED, priority 2019, dated 2025)
